Molecules are shown by their SMILES. Like-named read-outs stand apart in the source and are kept apart here.

Data on eleven molecules can be found in patent US20240254138A1, “TRICYCLIC PYRIMIDINES AS CYCLIN-DEPENDENT KINASE 7 (CDK7) INHIBITORS” (JANSSEN PHARMACEUTICA NV, priority 2021, published 2024).

In test [1] the test system is RNA Polymerase II Serine 5 phosphorylation (Rpb1 CTD, downstream substrate of CDK7) in A549 cells. The test is described as follows: Imaging-based cellular RNA PolII Ser5 phosphorylation assay in A549 cells. In kind it is cell-based, human. To be noted: wild-type CDK7, RNA PolII Ser5 phosphorylation, averaged over all measurements; for IC50: Homo sapiens, A549, A549 cells, read-out: CDK7_A549 Wild-type CDK7 (pIC50) (converted); for CDK7_A549 Wild-type CDK7 (pIC50): A549 cells. In short, it runs like this:
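IC50 derived by fitting % control (DMSO high, 10 μM reference low) against concentration, with Hill slope. Readout: high-content imaging of phospho-Ser5 Rpb1 CTD antibody staining in fixed, permeabilized A549 cells exposed to compound 3 h after 20 h culture in 1% FBS DMEM.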

The subject of test [2] is RNA Polymerase II Serine 5 phosphorylation in A549 cells overexpressing CDK7-mutant (C312S). Kind of test: Imaging-based cellular RNA PolII Ser5 phosphorylation assay in A549 cells overexpressing CDK7-mutant (C312S). In kind it is cell-based, human. To be noted: RNA PolII Ser5 phosphorylation, averaged over all measurements; for IC50: Homo sapiens, A549, A549 cells overexpressing CDK7-mutant (C312S), read-out: CDK7_A549 mutant hCDK7(pIC50) (converted); for CDK7_A549 mutant hCDK7(pIC50): A549 cells overexpressing CDK7-mutant (C312S). In short, it runs like this:
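Readout was automated imaging of anti-phospho-Ser5 Rpb1 CTD immunofluorescence, with IC50 fitted to % control versus concentration. Cells were A549 stably overexpressing non-covalently targetable CDK7 C312S alongside wild-type, exposed to compound 3 h at 37 °C. DMSO and 10 μM reference compound served as controls.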

Test [3] has as its target CDK7/cyclinH/MAT1 trimeric complex (Homo sapiens, UniProt P50613). Kind of test: In vitro CDK7 assay, potency of irreversible covalent inhibitors (kinact/KI), coupled PK/LDH ADP readout at 340 nm. To be noted: for Ki: CDK7 (20 nM enz.) (KI, μM); for kinact: read-out: CDK7 (20 nM enz.) (kinact, s^−1), 20 nM enzyme.
[4] abbreviates: read-out: CDK7 (20 nM enz.) (kobs/[I], M^−1*s^−1), 20 nM enzyme.
The mark [5] stands for this setting: read-out: CDK7 (20 nM enz.) (kinact/KI, M^−1*s^−1), 20 nM enzyme.

CDK7/cyclinH/MAT1 trimeric complex, sequence (P50613 whole entry): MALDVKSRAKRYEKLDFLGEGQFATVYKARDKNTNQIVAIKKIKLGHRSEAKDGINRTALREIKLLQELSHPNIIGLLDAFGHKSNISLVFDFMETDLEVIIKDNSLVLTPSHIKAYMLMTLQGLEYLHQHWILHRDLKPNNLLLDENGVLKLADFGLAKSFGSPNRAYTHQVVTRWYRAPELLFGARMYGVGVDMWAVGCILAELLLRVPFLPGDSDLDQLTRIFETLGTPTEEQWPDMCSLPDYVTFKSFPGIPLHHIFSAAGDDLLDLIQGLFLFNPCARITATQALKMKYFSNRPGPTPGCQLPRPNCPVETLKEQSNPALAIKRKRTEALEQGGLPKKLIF
CDK7/cyclinH/MAT1 trimeric complex, sequence (P51946 whole entry partner): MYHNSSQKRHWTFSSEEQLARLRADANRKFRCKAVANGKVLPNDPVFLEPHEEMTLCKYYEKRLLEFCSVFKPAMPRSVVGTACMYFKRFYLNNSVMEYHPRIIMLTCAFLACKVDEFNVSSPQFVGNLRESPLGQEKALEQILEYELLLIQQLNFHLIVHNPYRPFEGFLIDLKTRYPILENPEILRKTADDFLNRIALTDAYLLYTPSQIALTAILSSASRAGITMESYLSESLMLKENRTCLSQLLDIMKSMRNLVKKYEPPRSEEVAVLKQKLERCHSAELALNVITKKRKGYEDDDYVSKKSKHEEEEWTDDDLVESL
CDK7/cyclinH/MAT1 trimeric complex, sequence (P51948 whole entry partner): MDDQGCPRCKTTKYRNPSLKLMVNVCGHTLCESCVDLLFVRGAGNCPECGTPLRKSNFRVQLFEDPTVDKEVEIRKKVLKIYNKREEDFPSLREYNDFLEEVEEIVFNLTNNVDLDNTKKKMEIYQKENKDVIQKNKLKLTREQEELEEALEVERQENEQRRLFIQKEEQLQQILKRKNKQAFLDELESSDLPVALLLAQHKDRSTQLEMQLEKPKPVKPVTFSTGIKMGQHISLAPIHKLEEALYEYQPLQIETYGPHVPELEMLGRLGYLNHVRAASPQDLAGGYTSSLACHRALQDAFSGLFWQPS

On to `C=CC(=O)N1CC[C@@H](N2CC(c3cc(C)c4c(c3)Nc3nccc(N5CCOCC5)c3[C@@H](C)O4)C2)C1` (single isomer, unassigned) [Compound 398], for which the IC50 in test [1] is 0.0302 µM; in test [2], 6.17 µM. Further, the kinact/KI in test [3] (setting [4]) was 1630 M⁻¹ s⁻¹.

Consider `C=CC(=O)N1CC[C@@H](N2CC(c3cc4c(c(C(F)(F)F)n3)OCc3c(N5CCOCC5)ccnc3N4)C2)C1` (single isomer, unassigned) [Compound 402], for which the “CDK7_A549 Wild-type CDK7 (pIC50)” value in test [1] is recorded as 7.1. In test [2], the “CDK7_A549 mutant hCDK7(pIC50)” value worked out at 5.15. Besides, in test [3] (20 nM enzyme), the “CDK7 (20 nM enz.) (kinact, s^−1)” value is 0.000126 s⁻¹; the “CDK7 (20 nM enz.) (kinact/KI, M^−1*s^−1)” value is 1530.27 M⁻¹ s⁻¹; the Ki came out at 0.0823 µM.

Regarding `C=CC(=O)N1CC[C@H](N2CC(c3cc4c(c(C(F)(F)F)n3)OCc3c(N5CCOCC5)ccnc3N4)C2)C1` (single isomer, unassigned) [Compound 404], in test [1], the “CDK7_A549 Wild-type CDK7 (pIC50)” value was 7.13. Further, the “CDK7_A549 mutant hCDK7(pIC50)” value in test [2] is 5.09. Also, in test [3] (20 nM enzyme), the “CDK7 (20 nM enz.) (kobs/[I], M^−1*s^−1)” value worked out at 1280.59 M⁻¹ s⁻¹.

As to `C=CC(=O)N1CCC(N2CCC(c3cc4c(c(C)n3)O[C@H](C)c3c(N5CCOCC5)ccnc3N4)CC2)CC1` (single isomer, unassigned) [Compound 406], the results for the IC50 in test [1] and in test [2] were about 0.00977 µM and 1.82 µM, respectively. The molecule further displayed a Ki in test [3] (20 nM enzyme) of 0.495 µM. Moreover, in test [3], the kinact was found to be 0.000181 s⁻¹. In addition, in test [3] (setting [5]), the kinact/KI is 366 M⁻¹ s⁻¹.

Consider `C=CC(=O)N1CCC(N2CCC(c3cc4c(c(C)n3)O[C@@H](C)c3c(N5CCOCC5)ccnc3N4)CC2)CC1` (single isomer, unassigned) [Compound 411], for which the IC50 in test [1] was 0.288 µM; in test [2] it was over 10 µM. Moreover, the Ki in test [3] (20 nM enzyme) came to 3.4 µM. In addition, the kinact in test [3] was found to be 0.000106 s⁻¹. In addition, in test [3] (setting [5]), the kinact/KI is 31.3 M⁻¹ s⁻¹.

Take `C=CC(=O)N1CC[C@@H](N2CC(c3cc4c(c(C)n3)O[C@H](C)c3c(C5CCOCC5)ccnc3N4)C2)C1` (single isomer, unassigned) [Compound 413]: the IC50 was 0.0759 µM in test [1] and over 10 µM in test [2]. In test [3] (20 nM enzyme), this molecule displayed a Ki of 0.0374 µM. Besides, the kinact in test [3] worked out at 4.94e-05 s⁻¹. For the same molecule, the kinact/KI in test [3] (setting [5]) was determined as 1320 M⁻¹ s⁻¹.

Turning to `C=CC(=O)N1CC(N2CCC(c3cc4c(c(C)n3)O[C@@H](C)c3c(C5CCOCC5)ccnc3N4)CC2)C1` (single isomer, unassigned) [Compound 415], the results for the IC50 in test [1] and in test [2] were 1.82 µM and over 10 µM, respectively. Further, the Ki in test [3] (20 nM enzyme) was 2.22 µM. Moreover, in test [3], the kinact came to 7.43e-05 s⁻¹. Also, the kinact/KI in test [3] (setting [5]) was found to be 33.5 M⁻¹ s⁻¹.

As for `CC#CC(=O)N1CCC(N2CCC(c3cc4c(c(C)n3)O[C@H](C)c3c(N5CCOCC5)ccnc3N4)CC2)CC1` (single isomer, unassigned) [Compound 416], the IC50 was under 0.00977 µM in test [1] and 1.86 µM in test [2]. Also, the kinact/KI in test [3] (setting [4]) was 1750 M⁻¹ s⁻¹.

Regarding `CC#CC(=O)N1CC[C@H](N2CC(c3cc4c(c(C5CC5)n3)OCc3c(N5CCOCC5)ccnc3N4)C2)C1` (single isomer, unassigned) [Compound 418], the IC50 in test [1] is 0.257 µM; in test [2], 8.71 µM. This molecule also yielded a Ki in test [3] (20 nM enzyme) of 0.0692 µM. Also, the kinact in test [3] turned out to be 2.87e-05 s⁻¹. In addition, the kinact/KI in test [3] (setting [5]) stood at 415 M⁻¹ s⁻¹.

Regarding `C=CC(=O)N1CC[C@H](N2CC(c3cc4c(c(C5CC5)n3)OCc3c(N5CCOCC5)ccnc3N4)C2)C1` (single isomer, unassigned) [Compound 421], the “CDK7_A549 Wild-type CDK7 (pIC50)” value in test [1] worked out at 7.02. In addition, in test [2], the “CDK7_A549 mutant hCDK7(pIC50)” value is on record as 5. In addition, in test [3] (20 nM enzyme), the “CDK7 (20 nM enz.) (kinact/KI, M^−1*s^−1)” value worked out at 1185.66 M⁻¹ s⁻¹ and the Ki turned out to be 0.064 µM. For the same molecule, in test [3], the kinact stood at 7.59e-05 s⁻¹.

For `C=CC(=O)N1CC[C@H](N2CC(c3cc4c(c(C)n3)O[C@H](C)c3c(C5CCOCC5)ccnc3N4)C2)C1` (single isomer, unassigned) [Compound 422], the IC50 in test [1] was 0.115 µM; in test [2], over 10 µM. Besides, the Ki in test [3] (20 nM enzyme) turned out to be 0.0415 µM. The kinact in test [3] was 4.6e-05 s⁻¹. The kinact/KI in test [3] (setting [5]) was 1110 M⁻¹ s⁻¹.

As usually defined, the kinact is the maximal first-order rate at which the target is inactivated.
